From patent US20060234945A1, “Ophthalmic therapeutic composition” (Nihon Tenganyaku Kenkyusho Co., LTD., priority 2002, published 2006)

What was measured:
[1] = tested on: rabbit corneal wound model; experiment: Corneal wound healing promotion action 2 (in vivo), approx. 8 mm corneal epithelial abrasion; design: species or system Japanese white rabbit
Protocol: (3) Corneal Wound Healing Promotion Action 2 (In Vivo)
Using the same method as (2) above, corneal epithelial abrasion was induced in a Japanese white rabbit to produce a wound of approximately 8 mm in diameter in the cornea. The wound area was measured using the fluorescein-stained area as an index to examine the effects on corneal wound healing.
The eye drops containing the respective concentrations of the test compound were instilled (25 μl at a time) at 0, 6, 12, 18, 24, 30, 36, 42, 48, and 54 hours after induction corneal epithelial abrasion. In measuring the wound area, fluorescein staining was carried out and a photograph of the cornea was measured. The fluorescein-stained area of the photographed cornea was computed using an image analysis processing system.
(§1) In Tables 3 and 4, the respective values indicate the mean value±standard deviation (n=6). Statistical analysis was carried out using Dunnett's multiple comparison with respect to physiological saline with the area of the corneal wound portion immediately after (0 hours after) corneal epithelial abrasion being set to 100% (*p<0.05, ** p<0.01; vs. control).

corneal epithelium = experiment: Action on corneal epithelium migration (in vitro), corneal organ culture system; type: cell-based, Japanese white rabbit; details: rabbit corneal blocks incubated 20 hours in Medium-199 with test compound; FIG. 1, 51.2-512.3 nM; vs control
Protocol: (1) Action on Corneal Epithelium Migration (In Vitro)
Using the cornea of male Japanese white rabbits, the effects on corneal epithelium migration were examined using the migrating length of the corneal epithelium in a corneal organ culture system as an index in accordance with the method of Nishida et al. (J. Cell. Biol., 97, pp. 1653-1657 (1983)).
Corneal blocks (three per group) were cut out from rabbit corneal tissue. These corneal blocks were incubated for 20 hours under the conditions of 37° C. and 5% CO2 in a culture medium (Medium-199) containing the test compound. After incubation, the corneal blocks were fixed in a mixed solution of ethanol and glacial acetic acid (volume ratio of 95:5), embedded in paraffin, and prepared as sections. After deparaffination, the sections were stained with hematoxylin-eosin and the migrating length of the epithelial cell layer was measured under a microscope.

[2] = tested on: rabbit corneal wound model; experiment: Corneal wound healing promotion action 1 (in vivo), approx. 6 mm corneal epithelial abrasion; design: species or system Japanese white rabbit
Protocol: (2) Corneal Wound Healing Promotion Action 1 (In Vivo)
Using a male Japanese white rabbit, a wound of approximately 6 mm in diameter was produced in the cornea by inducing corneal epithelial abrasion in accordance with the method of Cintron et al. (Ophthalmic Res., 11, pp. 90-96 (1979)). The wound area was measured using the fluorescein-stained area as an index. The effects of the test compound on corneal wound healing were examined.
The eye drops containing the respective concentrations of the test compound were instilled (30 μl at a time) at 0, 3, 6, 9, 12, 18, 24, 27, 30, 33, 36, 42, and 48 hours after inducing corneal epithelial abrasion. In measuring the wound area, fluorescein staining was carried out and a photograph of the cornea was measured. The fluorescein-stained area of the photographed cornea was computed using an image analysis processing system.
as §1, with “1” for “3”, “2,” for “4,”, “PBS” for “physiological saline”

## hyaluronic acid [reference compound]
[1]; 0.3% eye drop, 0 hr (baseline)
  Healing ratio (%): 0%
[1]; 0.3% eye drop, 12 hr
  Healing ratio (%): 13.98 ± 4.88%
[1]; 0.3% eye drop, 18 hr
  Healing ratio (%): 28.45 ± 3.37%
[1]; 0.3% eye drop, 24 hr
  Healing ratio (%): 60.78 ± 8.07%
[1]; 0.3% eye drop, 30 hr
  Healing ratio (%): 60.78 ± 8.07%
[1]; 0.3% eye drop, 36 hr
  Healing ratio (%): 71.62 ± 11.02%
[1]; 0.3% eye drop, 48 hr
  Healing ratio (%): 90.19 ± 9.51%
[1]; 0.3% eye drop, 54 hr
  Healing ratio (%): 95.35 ± 6.44%
[1]; 0.3% eye drop, 72 hr
  Healing ratio (%): 99.92 ± 0.22%

## Ac-Pro-His-Ser-Arg-Asn-NH2 (Ac-PHSRN-NH2) [PHSRN (SEQ ID NO: 1)]
Corneal epithelium
  migration of corneal epithelium (migrating length of epithelial cell layer): significant promotion
[1]; 0.04% eye drop, 0 hr (baseline)
  Healing ratio (%): 0%
[1]; 0.04% eye drop, 12 hr
  Healing ratio (%): 13.57 ± 3.74%
[1]; 0.04% eye drop, 18 hr
  Healing ratio (%): 29.45 ± 3.29%
[1]; 0.04% eye drop, 24 hr
  Healing ratio (%): 58.71 ± 6.32%
[1]; 0.04% eye drop, 30 hr
  Healing ratio (%): 58.71 ± 6.32%
[1]; 0.04% eye drop, 36 hr
  Healing ratio (%): 70.29 ± 8.38%
[1]; 0.04% eye drop, 48 hr
  Healing ratio (%): 88.27 ± 8.74%
[1]; 0.04% eye drop, 54 hr
  Healing ratio (%): 94.24 ± 6.62%
[1]; 0.04% eye drop, 72 hr
  Healing ratio (%): 98.93 ± 2.16%
[1]; instillation of eye drops, 8 mm wound, vs physiological saline
  promotion of wound healing: significant promotion of wound healing
[2]; 2 μM eye drop, 0 hr (baseline)
  Healing ratio (%): 0%
[2]; 2 μM eye drop, 6 hr
  Healing ratio (%): 9.66 ± 2.21%
[2]; 2 μM eye drop, 12 hr
  Healing ratio (%): 26.71 ± 2.62%
[2]; 2 μM eye drop, 24 hr
  Healing ratio (%): 61.91 ± 3.08%
[2]; 2 μM eye drop, 36 hr
  Healing ratio (%): 88.08 ± 4.03%
[2]; 2 μM eye drop, 48 hr
  Healing ratio (%): 99.14 ± 1.90%
[2]; 20 μM eye drop, 0 hr (baseline)
  Healing ratio (%): 0%
[2]; 20 μM eye drop, 6 hr
  Healing ratio (%): 10.73 ± 3.21%
[2]; 20 μM eye drop, 12 hr
  Healing ratio (%): 28.01 ± 1.92%
[2]; 20 μM eye drop, 24 hr
  Healing ratio (%): 64.07 ± 3.98%
[2]; 20 μM eye drop, 36 hr
  Healing ratio (%): 89.09 ± 6.42%
[2]; 20 μM eye drop, 48 hr
  Healing ratio (%): 99.15 ± 1.52%
[2]; 200 μM eye drop, 0 hr (baseline)
  Healing ratio (%): 0%
[2]; 200 μM eye drop, 6 hr
  Healing ratio (%): 11.06 ± 3.50%
[2]; 200 μM eye drop, 12 hr
  Healing ratio (%): 28.69 ± 4.10%
[2]; 200 μM eye drop, 24 hr
  Healing ratio (%): 67.70 ± 5.37%
[2]; 200 μM eye drop, 36 hr
  Healing ratio (%): 94.97 ± 4.63%
[2]; 200 μM eye drop, 48 hr
  Healing ratio (%): 100.00 ± 0.00%
[2]; 2000 μM eye drop, 0 hr (baseline)
  Healing ratio (%): 0%
[2]; 2000 μM eye drop, 6 hr
  Healing ratio (%): 11.15 ± 1.25%
[2]; 2000 μM eye drop, 12 hr
  Healing ratio (%): 28.99 ± 2.65%
[2]; 2000 μM eye drop, 24 hr
  Healing ratio (%): 69.49 ± 3.17%
[2]; 2000 μM eye drop, 36 hr
  Healing ratio (%): 95.39 ± 3.06%
[2]; 2000 μM eye drop, 48 hr
  Healing ratio (%): 100.00 ± 0.00%
[2]; instillation of eye drops, 6 mm wound, vs PBS
  promotion of wound healing: significant promotion of wound healing
